{"source": "patent EP1285920A1", "about": "“C10 Ester sustituted taxanes as antitumor agents” (Florida State University Research Foundation, Inc., priority 2001, dated 2003)", "key": {"[1]": {"system": "NCI-H1299 (H1299) carcinoma", "assay": "In vivo evaluation against NCI-H1299 human lung carcinoma xenograft (i.v., Example 11)", "procedure": "Antitumor compounds were formulated for an i.v. dosing regime prepared in the following vehicle: 10% ethanol, 10% Cremophor and 80% isotonic saline.\nVehicle control animals were dosed twice intravenously with half the total volume being given separated by one hour. The study was terminated on Day 60.\nA complete response is obtained if the tumor is not palpable at the end of the study.\nA tumor scoring system was designed to provide a more quantitative ranking of efficacy (therapeutic potential) among the antitumor agents evaluated against the different human solid tumor xenografts. Each mouse in a study was given a score of from 1 to 10 at the end of the study. The scores can be summarized as follows:\nThe individual score for each mouse was averaged into a mean score for each treatment group. […]\nThe treatment protocol for the H1299 test was identical to the SK-MES test protocol. […]"}, "[2]": {"system": "HCT116 carcinoma", "how_it_was_run": "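Mice bearing HCT116 tumours received a single i.v. maximum tolerated dose per compound, formulated in 5% ethanol, 5% Cremophor, 90% isotonic saline. Study ended on Day 60; complete response meant no palpable tumour at study end.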"}, "[3]": {"system": "MX-1 carcinoma", "how_it_was_run": "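Mice dosed with a single i.v. bolus (qd x 1) at each compound's MTD, formulated in 5% ethanol, 5% Cremophor, 90% isotonic saline. Study ended Day 60; complete response = tumor not palpable at study end.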"}, "[4]": {"system": "Panc-1 pancreatic carcinoma", "conditions": "for Mean Score: tumor scoring system", "protocol": "The dosing volume was 0.3 ml per 20 g mouse.\nFemale NCr-nude mice were implanted subcutaneously with 1 mm^3 Panc-1 pancreatic carcinoma fragments in the flank and sorted into treatment groups of six mice each. […] Dosing was initiated on Day 1. The antitumor compounds were given i.v. at an estimated maximum tolerated dose (MTD) appropriate for each agent on a qd x 1 schedule (single administration of compound). […] The vehicle was administered i.v. to control mice in Group 1 on the qd x 1 schedule.\nThe mean days of survival is the number of days after which a neoplasm reached a size of 1.5 g and the animal was euthanized. A complete response is obtained if the tumor shrinks to a size smaller than its size on Day 1 of the study."}, "[5]": {"conditions": "i.v. split dose qd x 1, six mice per group"}, "[6]": {"conditions": "HCT116, Taxol i.p. 18 mg/kg qd x 5 (Group 3)"}, "[7]": {"conditions": "number of 5 mice, Taxol 18 mg/kg i.p. qd x 5"}, "[8]": {"conditions": "MX-1, i.v. qd x 1, six mice per group"}, "[9]": {"conditions": "number of mice, Taxol 15 mg/kg i.p. qd x 5, 6 mice, Day 63"}, "[10]": {"conditions": "number of mice, i.v. qd x 1, mg/kg: Taxol 24, 0854 46.6, 1011 107.6, 6 mice/group, Day 63"}}, "note": "Where two headings read alike, the source gives them in different places."}
{"smiles": "CC(=O)O[C@H]1C(=O)[C@@]2(C)[C@H]([C@H](OC(=O)c3ccccc3)[C@]3(O)C[C@H](OC(=O)[C@H](O)[C@@H](NC(=O)c4ccccc4)c4ccccc4)C(C)=C1C3(C)C)[C@]1(OC(C)=O)CO[C@@H]1C[C@@H]2O", "note": "[Taxol, paclitaxel, reference compound]", "values": [{"measurement": "survival extension compared to vehicle-treated animals", "setting": "[1]; Taxol 36 mg/kg i.v., five animals", "value": 10, "unit": "%"}, {"measurement": "MDS (n)", "setting": "[1]; i.v. MTD in two half doses one hour apart, qd x 1, Taxol 36 mg/kg, 0503 72.1 mg/kg, ended Day 60", "value": "27.0 ± 4.6 (5) days"}, {"measurement": "Complete Response", "setting": "[1]; i.v. split dose qd x 1", "value": 0}, {"measurement": "Stable Disease", "setting": "[1]; i.v. split dose qd x 1", "value": 0}, {"measurement": "antitumor activity", "setting": "[1]; i.v. split dose qd x 1", "value": "not active"}, {"measurement": "Survivors", "setting": "[1]; [5]", "value": 1}, {"measurement": "Toxic Deaths", "setting": "[1]; [5]", "value": 0}, {"measurement": "Mean Score", "setting": "[1]; tumor score 1 to 10 per mouse, group mean", "value": "2.7 ± 1.3"}, {"measurement": "increase in survival compared to control Group 1", "setting": "[2]; HCT116, Taxol 36 mg/kg i.v. qd x 1", "value": 24, "unit": "%"}, {"measurement": "Partial Response", "setting": "[2]; [6]", "value": "one"}, {"measurement": "survival extension compared to Group 1 control mice", "setting": "[2]; [6]", "value": 84, "unit": "%"}, {"measurement": "MDS", "setting": "[2]; HCT116, i.v. qd x 1 (compounds single MTD; Taxol 36 mg/kg split), days until tumor 2.0 g, ended Day 60", "value": 27.5, "unit": "days"}, {"measurement": "Stable Disease", "setting": "[2]; HCT116, i.v. qd x 1, five mice per group", "value": "one"}, {"measurement": "Mean Score", "setting": "[2]; Taxol 18 mg/kg i.p. qd x 5, 5 mice", "value": "3.6 ± 1.4"}, {"measurement": "Mean Score", "setting": "[2]; i.v. qd x 1 at MTD, 5 mice/group, Day 60, doses as in E3", "value": "2.2 ± 0.5"}, {"measurement": "MDS (n)", "setting": "[2]; mean days of survival until tumor reached 2.0 g, i.v. qd x 1 at MTD, 5 mice/group, study ended Day 60, mg/kg: Taxol 36 (split doses), 0503 72.6, 0536 49, 0663 159, 0670 123, 0687 159, 0706 108, 0908 159, 0947 76.9, 0951 72.6, 0983 72.6, 0999 49, 1003 49, 1011 108", "value": "27.5 ± 1.7 (4) days"}, {"measurement": "tolerability", "setting": "[2]; mouse, in vivo, iv", "value": "well-tolerated"}, {"measurement": "Stable Disease", "setting": "[2]; number of 5 mice, tumor did not reach 2.0 g by end of study, i.v. qd x 1 at MTD, Day 60, doses as in E3", "value": 1}, {"measurement": "Complete Response", "setting": "[2]; number of 5 mice, tumor not palpable at end of study, i.v. qd x 1 at MTD, Day 60, doses as in E3", "value": 0}, {"measurement": "Partial Response", "setting": "[2]; number of 5 mice, tumor smaller than on Day 1, i.v. qd x 1 at MTD, Day 60, doses as in E3", "value": 0}, {"measurement": "Complete Response", "setting": "[2]; [7]", "value": 0}, {"measurement": "Partial Response", "setting": "[2]; [7]", "value": 1}, {"measurement": "Stable Disease", "setting": "[2]; [7]", "value": 0}, {"measurement": "Survivors", "setting": "[2]; [7]", "value": 1}, {"measurement": "Toxic Deaths", "setting": "[2]; [7]", "value": 0}, {"measurement": "Survivors", "setting": "[2]; number of 5 mice, i.v. qd x 1 at MTD, Day 60, doses as in E3", "value": 1}, {"measurement": "Toxic Deaths", "setting": "[2]; number of 5 mice, i.v. qd x 1 at MTD, Day 60, mg/kg: Taxol 36 (split doses), 0503 72.6, 0536 49, 0663 159, 0670 123, 0687 159, 0706 108, 0908 159, 0947 76.9, 0951 72.6, 0983 72.6, 0999 49, 1003 49, 1011 108", "value": 0}, {"measurement": "MDS", "setting": "[3]; MX-1, Taxol 36 mg/kg i.v. qd x 1, one animal, calculated, tumor 2.0 g", "value": 27.8, "unit": "days"}, {"measurement": "antitumor activity / tumor response", "setting": "[3]; MX-1, i.v. qd x 1, Day 60", "value": "moderate anti-tumor activity"}, {"measurement": "Stable Disease", "setting": "[3]; [8]", "value": "One"}, {"measurement": "Toxic Deaths", "setting": "[3]; [8]", "value": "four"}, {"measurement": "Mean Score", "setting": "[3]; i.v. qd x 1 at MTD, 6 mice/group, Day 60, doses as in E17", "value": "1.2 ± 0.8"}, {"measurement": "tolerability", "setting": "[3]; mouse, in vivo, iv", "value": "not well tolerated"}, {"measurement": "Stable Disease", "setting": "[3]; number of 6 mice, tumor did not reach 2.0 g by end of study, i.v. qd x 1 at MTD, Day 60, doses as in E17", "value": 1}, {"measurement": "Complete Response", "setting": "[3]; number of 6 mice, tumor not palpable at end of study, i.v. qd x 1 at MTD, Day 60, doses as in E17", "value": 0}, {"measurement": "Partial Response", "setting": "[3]; number of 6 mice, tumor smaller than on Day 1, i.v. qd x 1 at MTD, Day 60, doses as in E17", "value": 0}, {"measurement": "Survivors", "setting": "[3]; number of 6 mice, i.v. qd x 1 at MTD, Day 60, doses as in E17", "value": 1}, {"measurement": "Toxic Deaths", "setting": "[3]; number of 6 mice, i.v. qd x 1 at MTD, Day 60, mg/kg: Taxol 36 (split dose), 0503 72.6, 0536 49, 0663 159, 0670 123, 0687 159, 0706 108, 0908 159, 0947 76.9, 0951 72.6, 0983 67.4, 0999 49, 1003 49, 1011 108", "value": 0}, {"measurement": "MDS", "setting": "[4]; Panc-1 (Example 18), Taxol 24 mg/kg i.v. qd x 1, four mice, tumor 1.5 g, ended Day 63", "value": 34.7, "unit": "days"}, {"measurement": "Toxic Deaths", "setting": "[4]; Panc-1 (Example 18), Taxol i.p. 15 mg/kg qd x 5 (Group 3), six animals", "value": "four"}, {"measurement": "Stable Disease", "setting": "[4]; Panc-1 (Example 18), i.v. qd x 1, Taxol 24 mg/kg split, six mice per group", "value": "one"}, {"measurement": "toxic deaths / toxic lethalities", "setting": "[4]; Panc-1 (Example 18), i.v. qd x 1, six mice per group", "value": "One"}, {"measurement": "MDS (n)", "setting": "[4]; mean days of survival until neoplasm reached 1.5 g, i.v. qd x 1, mg/kg: Taxol 24, 0854 46.6, 1011 107.6, 6 mice/group, terminated Day 63", "value": "34.7 ± 3.4", "unit": "days"}, {"measurement": "Toxic Deaths", "setting": "[4]; number of mice, Taxol 15 mg/kg i.p. qd x 5, 6 mice", "value": 4}, {"measurement": "Complete Response", "setting": "[4]; [9]", "value": 0}, {"measurement": "Partial Response", "setting": "[4]; [9]", "value": 1}, {"measurement": "Stable Disease", "setting": "[4]; [9]", "value": 0}, {"measurement": "Survivors", "setting": "[4]; [9]", "value": 1}, {"measurement": "Toxic Deaths", "setting": "[4]; number of mice, i.v. qd x 1, mg/kg: Taxol 24, 0854 46.6, 1011 107.6, 6 mice/group", "value": 1}, {"measurement": "Complete Response", "setting": "[4]; [10]", "value": 0}, {"measurement": "Partial Response", "setting": "[4]; [10]", "value": 0}, {"measurement": "Stable Disease", "setting": "[4]; [10]", "value": 1}, {"measurement": "Survivors", "setting": "[4]; [10]", "value": 1}, {"measurement": "Mean Score", "setting": "[4]; Taxol 15 mg/kg i.p. qd x 5, 6 mice", "value": "1.2 ± 1.2"}, {"measurement": "Mean Score", "setting": "[4]; i.v. qd x 1, mg/kg: Taxol 24, 0854 46.6, 1011 107.6, 6 mice/group", "value": "2.2 ± 0.8"}]}
